This note sets out measurements from article PMC10818931, “In Vitro Evaluation of Drug–Drug Interaction Potential of Epetraborole, a Novel Bacterial Leucyl-tRNA Synthetase Inhibitor” (Pharmaceuticals, 2024).

One data set concerns CYP3A4. The data set is described as follows: Automated time-dependent inhibition assay in HLM. The following applies: EBO 30 and 50 µM, 30 min preincubation with NADPH. Format: in vitro ADME, human. How it is done: The effect of EBO (30 and 50 µM) on time-dependent inhibition of CYP3A4 (testosterone and midazolam substrate) and CYP2D6 ([…] substrate) was determined using methodologies described previously. The Genesis robot (Tecan, Reading, UK) running Gemini software (https://www.tecan.com) was used to perform a fully automated TDI assay. The assay ran a preincubation (30 min at 37 °C, 1 mg/mL HLM incubation containing 1 mM NADPH and EBO) and a secondary incubation (containing 50 µL aliquot from the preincubation, 1 mM NADPH, and substrates for CYP3A4 and CYP2D6). At the end of the secondary incubation (15 min at 37 °C), an aliquot (50 µL) was removed and added to 100 µL of methanol to quench the reaction. Quenched samples were then chilled at −20 °C for 2 h, centrifuged at 2000× g for 15 min, and the supernatants were transferred to microtiter plates for LC/MS-MS analysis.

For the next data set, the target named is T1, CYP2C19 (Homo sapiens, UniProt P33261).
T1 construct: tissue CellzDirect; XenoTech LLC; host or cells: pooled human liver microsomes
Kind of data set: CYP inhibition (direct and metabolism-dependent) in human hepatic microsomes. Format: in vitro ADME. How it is done: (§1) The direct inhibitory potential of EBO on cytochrome P450 activities O-deethylase (CYP1A2), bupropion hydroxylase (CYP2B6), amodiaquine N-deethylase (CYP2C8), diclofenac 4′-hydroxylase (CYP2C9), S-mephenytoin 4′-hydroxylase (CYP2C19), bufuralol 1′-hydroxylase (CYP2D6), chlorzoxazone 6-hydroxylase (CYP2E1), testosterone 6β-hydroxylase (CYP3A), and midazolam 1′-hydroxylase (CYP3A) was assessed in vitro using human hepatic microsomes according to Covance Laboratory (Madison, WI, USA) SOP. A single substrate concentration was used, approximating the concentration of substrate that gives half the maximum reaction velocity (Km) for human hepatic microsomes for each cytochrome P450 activity. […] All sample and control incubations were performed in triplicate and were analyzed by LC-MS/MS. Incubation mixtures contained microsomal protein and substrate in a 0.1 M potassium phosphate buffer (pH 7.4) containing 1 mM EDTA (assay buffer). […] Incubations were terminated by the addition of 100 µL of an internal standard solution followed by vortex mixing. Protein was removed by centrifugation at 1500× g for 5 min at 4 °C, and supernatants were transferred to a separate plate and stored at 4 °C prior to LC-MS/MS analysis. The analyte for each activity assay was quantitated by comparison to a linear curve of an authentic standard prepared using human microsomal protein. […] Incubations were performed at substrate concentrations approximating the average Km values. […] For determination of control activities, NADPH was added after the addition of each substrate. Samples were then processed as previously described.

Another data set deals with T2, CYP2E1 (Homo sapiens, UniProt P05181).
T2 construct: Characterized, pooled, human hepatic microsomes from 15 individuals; tissue CellzDirect (Durham, NC, USA) or XenoTech LLC (Lenexa, KS, USA); host or cells: pooled human liver microsomes (15 donors)
The data set is described as above. In kind it is in vitro ADME. How it is done:
as §1

A further data set has as its system CYP2B6. The description is as above. Format: in vitro ADME. How it is done:
as §1

The target in data set [1] is T3, P-gp (Homo sapiens, UniProt P08183). The data set is described as follows: Caco-2 efflux ratio without/with P-gp inhibitor (P-gp substrate). Format: in vitro ADME. Also noted: host or cells: Caco-2. The following applies: for efflux ratio: Caco-2, 1, 10, 100 µM, 1–4 h. The procedure:
^14C-EBO permeability in Caco-2 Cells (MDR1/Protein Glycoprotein or P-gp) was determined using methodologies described previously. The apparent permeability of ^14C-EBO was determined in both the apical to basolateral and the basolateral to apical directions, in triplicate, at final concentrations of 1, 10, and 100 μM. Cell monolayers were incubated with ^14C-EBO at 37 °C for 1, 2, 3, and 4 h. The transepithelial electrical resistance (TEER) values of the monolayers prior to and following each experiment were measured to confirm the integrity of the Caco-2 cell monolayers. The apparent permeability of ^14C-EBO (at a final concentration of 10 μM) was determined in both the apical to basolateral and basolateral to apical directions under the same conditions as previously described in the presence of P-gp inhibitors cyclosporine A (10 μM) and verapamil (100 μM) in the donor compartment.

The target in data set [2] is T3, P-gp. The data set is described as follows: Effect on P-gp mediated transport of 3H-digoxin in Caco-2. Also noted: host or cells: Caco-2. In kind it is in vitro ADME. The procedure:
The concentrations of each radiolabeled compound in the resulting samples were determined using liquid scintillation counting (LSC).

Another data set has as its system major CYP enzymes. Kind of data set: Stability studies (CYP substrate potential, hepatic microsomes). In kind it is in vitro ADME.
The target in data set [3] is T3, P-gp. Kind of data set: Inhibition of P-gp digoxin efflux transport in MDR1-MDCK cells. The procedure: A preincubation with EBO or known inhibitor was performed on both sides to preload the cells. After 30 min, the preincubation solution was aspirated. Aliquots of fresh dosing solution with or without EBO or known inhibitor (0.55 mL for AP-to-BL, 1.55 mL for BL-to-AP) were added to the donor compartment, and HBSSg_7.4 with or without EBO or known inhibitor (1.5 mL for AP-to-BL, 0.5 mL for BL-to-AP) were added to the receiver compartment. Receiver samples (200 µL) and donor samples (50 µL) were taken at preselected time points.
Cell monolayer integrity was examined using lucifer yellow (excitation 450 nm and emission 538 nm). The concentrations of the probe substrate in the donor and receiver samples, as well as EBO in dosing solutions, were determined by LC-MS/MS.

[4] abbreviates: metabolism-dependent inhibition.

pIC50: −log10 of the molar value. Where two headings read alike, the source gives them in different places. Bounds are passed on as bounds.

T3 sequence (P08183 whole entry): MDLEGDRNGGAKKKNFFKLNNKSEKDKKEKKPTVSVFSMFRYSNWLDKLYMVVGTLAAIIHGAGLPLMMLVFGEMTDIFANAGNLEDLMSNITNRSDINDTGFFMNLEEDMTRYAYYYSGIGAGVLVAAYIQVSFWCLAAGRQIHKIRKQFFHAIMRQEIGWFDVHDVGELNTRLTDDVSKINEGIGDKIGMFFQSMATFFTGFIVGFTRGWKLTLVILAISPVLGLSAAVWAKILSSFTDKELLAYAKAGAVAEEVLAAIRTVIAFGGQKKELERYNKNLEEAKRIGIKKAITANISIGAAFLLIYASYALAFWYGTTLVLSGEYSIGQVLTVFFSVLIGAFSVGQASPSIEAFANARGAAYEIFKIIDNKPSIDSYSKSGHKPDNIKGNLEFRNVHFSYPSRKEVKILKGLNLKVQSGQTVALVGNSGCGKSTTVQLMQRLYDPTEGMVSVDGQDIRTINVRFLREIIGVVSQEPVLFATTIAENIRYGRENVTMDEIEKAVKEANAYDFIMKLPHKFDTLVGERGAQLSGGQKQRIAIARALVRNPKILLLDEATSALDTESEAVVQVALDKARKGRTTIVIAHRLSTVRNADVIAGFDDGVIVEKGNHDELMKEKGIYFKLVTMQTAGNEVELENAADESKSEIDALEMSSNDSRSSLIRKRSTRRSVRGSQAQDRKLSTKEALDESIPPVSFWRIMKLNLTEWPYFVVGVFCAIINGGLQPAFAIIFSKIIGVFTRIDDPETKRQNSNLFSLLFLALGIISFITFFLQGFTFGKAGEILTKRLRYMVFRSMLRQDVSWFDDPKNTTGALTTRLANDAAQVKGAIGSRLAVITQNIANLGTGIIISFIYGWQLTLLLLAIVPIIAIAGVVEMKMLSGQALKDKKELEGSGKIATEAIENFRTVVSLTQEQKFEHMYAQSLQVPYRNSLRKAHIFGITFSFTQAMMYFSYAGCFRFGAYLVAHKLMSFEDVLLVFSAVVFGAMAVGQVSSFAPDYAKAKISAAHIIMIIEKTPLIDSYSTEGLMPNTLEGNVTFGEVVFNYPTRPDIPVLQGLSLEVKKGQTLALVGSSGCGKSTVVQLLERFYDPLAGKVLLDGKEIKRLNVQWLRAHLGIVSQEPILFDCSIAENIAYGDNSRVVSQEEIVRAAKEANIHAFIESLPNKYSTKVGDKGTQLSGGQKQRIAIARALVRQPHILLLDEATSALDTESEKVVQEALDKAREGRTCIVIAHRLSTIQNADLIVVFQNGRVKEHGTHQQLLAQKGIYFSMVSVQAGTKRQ
T2 sequence (P05181 whole entry): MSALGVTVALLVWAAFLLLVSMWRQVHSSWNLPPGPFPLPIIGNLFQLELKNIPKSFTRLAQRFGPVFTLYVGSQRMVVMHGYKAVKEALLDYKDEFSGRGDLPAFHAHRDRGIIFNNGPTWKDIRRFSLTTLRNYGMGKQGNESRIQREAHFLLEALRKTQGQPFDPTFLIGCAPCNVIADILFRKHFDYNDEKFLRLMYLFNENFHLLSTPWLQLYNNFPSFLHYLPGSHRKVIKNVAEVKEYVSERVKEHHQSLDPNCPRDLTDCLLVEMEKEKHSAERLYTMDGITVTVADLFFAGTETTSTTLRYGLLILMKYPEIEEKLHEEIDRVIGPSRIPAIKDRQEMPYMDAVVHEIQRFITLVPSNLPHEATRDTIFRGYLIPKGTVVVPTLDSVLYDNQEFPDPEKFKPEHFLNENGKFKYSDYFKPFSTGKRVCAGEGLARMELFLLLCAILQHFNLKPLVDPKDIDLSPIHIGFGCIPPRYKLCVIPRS
T1 sequence (P33261 whole entry): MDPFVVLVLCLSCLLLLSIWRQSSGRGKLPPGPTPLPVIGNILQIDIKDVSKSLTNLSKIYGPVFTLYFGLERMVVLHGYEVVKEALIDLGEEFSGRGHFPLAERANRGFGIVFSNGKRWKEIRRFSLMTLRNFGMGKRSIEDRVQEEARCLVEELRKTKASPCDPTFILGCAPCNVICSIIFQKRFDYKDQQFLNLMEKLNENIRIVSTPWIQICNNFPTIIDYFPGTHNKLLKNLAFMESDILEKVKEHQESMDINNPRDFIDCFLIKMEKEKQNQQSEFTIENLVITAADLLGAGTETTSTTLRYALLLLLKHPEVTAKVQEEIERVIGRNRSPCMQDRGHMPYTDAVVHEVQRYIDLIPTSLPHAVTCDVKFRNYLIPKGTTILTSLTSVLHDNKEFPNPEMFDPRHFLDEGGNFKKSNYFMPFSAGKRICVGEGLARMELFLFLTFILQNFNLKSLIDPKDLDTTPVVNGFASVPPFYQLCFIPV

As to `NC[C@H]1OB(O)c2c(OCCCO)cccc21` [EBO, Epetraborole], in the data set with CYP3A4, the Time-dependent inhibition result is recorded as “No time-dependent inhibition”. The “MDI IC50 Fold Change” value at CYP2C19 (setting [4]), at CYP2E1 (setting [4]) and in the data set on CYP2B6 (setting [4]) was “No” throughout. Besides, the pIC50 on CYP2C19 (read-out: as an Inhibitor IC50) was under 4.00; at CYP2E1 (read-out: as an Inhibitor IC50) it was under 4.00; with CYP2B6 (human, human liver microsomes, pH 7.4, probe bupropion, read-out: as an Inhibitor IC50) it was under 4.00; at P-gp [3], 2.25. In addition, the P-gp substrate entry on P-gp [1] (Caco-2, efflux ratio without/with P-gp inhibitor) was “not a P-gp substrate”. Moreover, the “efflux ratio” value on P-gp [1] (vehicle (no P-gp inhibitor), listed as 14C-EBO) is under 2; at P-gp [1] (human, with cyclosporine A (10 µM), Cyclosporine A (10 µM), read-out: Efflux Ratio), under 2; at P-gp [1] (human, with verapamil (100 µM), Verapmil (100 µM), read-out: Efflux Ratio), under 2; at P-gp [1] (human, vehicle (no P-gp inhibitor), read-out: Efflux Ratio), under 2. Moreover, the “Inhibition of P-gp-mediated transport of digoxin” value on P-gp [2] is “not a significant inhibitor”. On P-gp [2] (EBO 100 µM), the “Efflux ratio of digoxin in the presence of test article” value is listed as “unchanged”. Moreover, the “Substrate for major CYP enzymes (stability studies)” value in the data set on major CYP enzymes is listed as “poor substrate”. Moreover, at P-gp [3] (human, pH 7.4), the “[Igut]/IC50” value is recorded as at most 3. Besides, the inhibition at 17000 µM at P-gp [3] (human, pH 7.4) is over 50%.
